# How the values were obtained:
# CK1ε = CK1ε (Homo sapiens, UniProt P49674); assay: CK1ε kinase assay (Caliper LabChip electrophoretic separation of fluoresceinated peptide substrate and product); format: biochemical; settings: 200 pM CK1ε, 50 μM ATP, 1.5 μM peptide, 22 hours at room temperature; read-out: CK1ε IC50 range
# Procedure: (§1) CK1ε and CK1δ Kinase Assays
# (§2) The kinase assay was performed in V-bottom 384-well plates. […] The reaction was incubated at room temperature for 22 hours and terminated by adding 45 μl of 35 mM EDTA to each sample. The reaction mixture was analyzed on the Caliper LABCHIP®3000 (Caliper, Hopkinton, Mass.) by electrophoretic separation of the unphosphorylated substrate and phosphorylated product. […] Compounds were dissolved at 10 mM in dimethylsulfoxide (DMSO) and evaluated at eleven concentrations. IC50 values were derived by non-linear regression analysis.
# CK1δ = CK1δ (Homo sapiens, UniProt P48730); assay: CK1δ kinase assay (Caliper LabChip electrophoretic separation of fluoresceinated peptide substrate and product); format: biochemical; settings: 200 pM CK1δ, 50 μM ATP, 1.5 μM peptide, 22 hours at room temperature; read-out: CK1δ IC50 range
# Sequence of CK1δ (P48730 whole entry): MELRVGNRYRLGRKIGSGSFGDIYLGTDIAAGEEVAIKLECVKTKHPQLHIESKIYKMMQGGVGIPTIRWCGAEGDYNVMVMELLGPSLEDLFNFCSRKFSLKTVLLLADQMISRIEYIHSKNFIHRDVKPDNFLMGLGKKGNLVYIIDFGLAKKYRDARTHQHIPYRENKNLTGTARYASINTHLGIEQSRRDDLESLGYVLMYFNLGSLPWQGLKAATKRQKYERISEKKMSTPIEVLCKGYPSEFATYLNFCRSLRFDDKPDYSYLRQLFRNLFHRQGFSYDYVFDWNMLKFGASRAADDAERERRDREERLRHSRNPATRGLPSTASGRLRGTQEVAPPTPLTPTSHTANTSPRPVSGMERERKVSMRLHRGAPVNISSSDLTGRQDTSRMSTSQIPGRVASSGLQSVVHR
# Procedure: as §1, §2
# Sequence of CK1ε (P49674 whole entry): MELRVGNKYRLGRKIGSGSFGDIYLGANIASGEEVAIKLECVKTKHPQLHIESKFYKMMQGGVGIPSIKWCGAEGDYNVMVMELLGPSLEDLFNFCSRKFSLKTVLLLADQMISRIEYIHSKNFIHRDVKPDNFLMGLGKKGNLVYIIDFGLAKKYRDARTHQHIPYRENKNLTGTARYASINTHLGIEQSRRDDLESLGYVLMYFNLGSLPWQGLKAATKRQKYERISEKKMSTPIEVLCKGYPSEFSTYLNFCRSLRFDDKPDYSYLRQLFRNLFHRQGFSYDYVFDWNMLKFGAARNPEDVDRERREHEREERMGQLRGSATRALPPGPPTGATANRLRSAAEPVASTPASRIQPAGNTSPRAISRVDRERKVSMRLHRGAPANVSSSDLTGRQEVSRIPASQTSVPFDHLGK
SMILES,IC50 (CK1ε) [nM],IC50 (CK1δ) [nM]
"COc1cc(F)cc(-c2nn3c(c2C(N)=O)CN(C(=O)NC(C)(C)C)CC3)c1 [Compound 137, N^5-(tert-Butyl)-2-(3-fluoro-5-methoxyphenyl)-6,7-dihydropyrazolo[1,5-a] pyrazine-3,5(4H)-dicarboxamide]",10 to 100,–
"COc1ccc(NC(=O)N2CCn3nc(-c4cccc(F)c4)c(C(N)=O)c3C2)cc1OC [Compound 66, N^5-(3,4-Dimethoxyphenyl)-2-(3-fluorophenyl)-6,7-dihydropyrazolo[1,5-a]pyrazine-3,5(4H)-dicarboxamide]",10 to 100,–
"CC(C)(C)NC(=O)N1CCn2nc(-c3cc(F)cc(F)c3)c(C(N)=O)c2C1 [Compound 105, N^5-(tert-Butyl)-2-(3,5-difluorophenyl)-6,7-dihydropyrazolo[1,5-a] pyrazine-3,5(4H)-dicarboxamide]",10 to 100,–
"CC(C)(C)NC(=O)N1Cc2c(C(N)=O)c(-c3ccc(F)c(Cl)c3)nn2CC12CC2 [Compound 350, N^5′-(tert-Butyl)-2′-(3-chloro-4-fluorophenyl)-4′H-spiro[cyclopropane-1,6′-pyrazolo[1,5-a]pyrazine]-3′,5′(7′H)-dicarboxamide]",100 to 2000,–
"NC(=O)c1c(-c2cccc(F)c2)nn2c1CN(C(=O)NCc1ccc(Cl)c(Cl)c1)CC2 [Compound 46, N^5-(3,4-Dichlorobenzyl)-2-(3-fluorophenyl)-6,7-dihydropyrazolo[1,5-a]pyrazine-3,5(4H)-dicarboxamide]",10 to 100,–
"NC(=O)c1c(-c2cccc(F)c2)nn2c1CN(C(=O)Nc1ccc(F)c(F)c1)CC2 [Compound 29, N^5-(3,4-Difluorophenyl)-2-(3-fluorophenyl)-6,7-dihydropyrazolo[1,5-a]pyrazine-3,5(4H)-dicarboxamide]",10 to 100,–
"Cc1ccc(NC(=O)N2CCn3nc(-c4cccc(F)c4)c(C(N)=O)c3C2)cn1 [Compound 86, 2-(3-Fluorophenyl)-N^5-(6-methylpyridin-3-yl)-6,7-dihydropyrazolo[1,5-a]pyrazine-3,5(4H)-dicarboxamide]",10 to 100,–
"NC(=O)c1c(-c2cccc(F)c2)nn2c1CN(C(=O)Nc1cncnc1)CC2 [Compound 84, 2-(3-Fluorophenyl)-N^5-(pyrimidin-5-yl)-6,7-dihydropyrazolo[1,5-a]pyrazine-3,5(4H)-dicarboxamide]",10 to 100,–
"CC(C)(NC(=O)N1CCn2nc(-c3cccc(F)c3)c(C(N)=O)c2C1)c1ccccc1 [Compound 25, 2-(3-Fluorophenyl)-N^5-(2-phenylpropan-2-yl)-6,7-dihydropyrazolo[1,5-a]pyrazine-3,5(4H)-dicarboxamide]",10 to 100,–
"N#Cc1ccc(O[C@H]2C[C@H](NC(=O)N3CCn4nc(-c5ccc(Cl)c(Cl)c5)c(C(N)=O)c4C3)C2)cc1 [Compound 268, N^5-((1r,3r)-3-(4-Cyanophenoxy)cyclobutyl)-2-(3,4-dichlorophenyl)-6,7-dihydropyrazolo[1,5-a] pyrazine-3,5(4H)-dicarboxamide]",–,0.01 to 10
"Cc1cc(C)cc(-c2nn3c(c2C(N)=O)CN(C(=O)NC(C)(C)C)CC3)c1 [Compound 128, N^5-(tert-Butyl)-2-(3,5-dimethylphenyl)-6,7-dihydropyrazolo[1,5-a] pyrazine-3,5(4H)-dicarboxamide]",–,10 to 100
"NC(=O)c1c(-c2ccc(F)c(Cl)c2)nn2c1CN(C(=O)NC13CCC(C(F)F)(CC1)CC3)CC2 [Compound A57, 2-(3-Chloro-4-fluorophenyl)-N^5-(4-(difluoromethyl)bicyclo[2.2.2]octan-1-yl)-6,7-dihydropyrazolo[1,5-a]pyrazine-3,5(4H)-dicarboxamide]",–,0.01 to 10
"NC(=O)c1c(-c2cccc(F)c2)nn2c1CN(C(=O)Nc1cccnc1)CC2 [Compound 68, 2-(3-Fluorophenyl)-N^5-(pyridin-3-yl)-6,7-dihydropyrazolo[1,5-a]pyrazine-3,5(4H)-dicarboxamide]",10 to 100,–
"N#Cc1ccc(NC(=O)N2Cc3c(C(N)=O)c(-c4cccc(Cl)c4)nn3C(CF)C2)cc1 (centres unmarked) [Compound A4, 2-(3-Chlorophenyl)-N^5-(4-cyanophenyl)-7-(fluoromethyl)-6,7-dihydropyrazolo[1,5-a]pyrazine-3,5(4H)-dicarboxamide]",0.01 to 10,–
"CCC1CN(C(=O)NC(C)(C)C)Cc2c(C(N)=O)c(-c3ccc(F)c(Cl)c3)nn21 (single isomer, unassigned) [Compound A98, N^5-(tert-Butyl)-2-(3-chloro-4-fluorophenyl)-7-ethyl-6,7-dihydropyrazolo[1,5-a]pyrazine-3,5(4H)-dicarboxamide]",0.01 to 10,–
"NC(=O)c1c(-c2cccc(F)c2)nn2c1CN(C(=O)Nc1ccc(F)nc1)CC2 [Compound 87, 2-(3-Fluorophenyl)-N^5-(6-fluoropyridin-3-yl)-6,7-dihydropyrazolo[1,5-a]pyrazine-3,5(4H)-dicarboxamide]",10 to 100,–

# The remaining lines, values ahead:
IC50 (CK1ε) [nM],IC50 (CK1δ) [nM],SMILES
10 to 100,–,"CSc1cccc(-c2nn3c(c2C(N)=O)CN(C(=O)NC(C)(C)C)CC3)c1 [Compound 150, N^5-(tert-Butyl)-2-(3-(methylthio)phenyl)-6,7-dihydropyrazolo[1,5-a] pyrazine-3,5(4H)-dicarboxamide]"
10 to 100,–,"NC(=O)c1c(-c2cccc(F)c2)nn2c1CN(C(=O)NC1CCN(S(=O)(=O)C3CC3)CC1)CC2 [Compound 102, N^5-(1-(Cyclopropylsulfonyl)piperidin-4-yl)-2-(3-fluorophenyl)-6,7-dihydropyrazolo[1,5-a]pyrazine-3,5(4H)-dicarboxamide]"
10 to 100,–,CC(=O)N1CCC(NC(=O)N2CCn3nc(-c4cccc(F)c4)c(C(N)=O)c3C2)CC1 [Compound 97]
10 to 100,–,"NC(=O)c1c(-c2cccc(F)c2)nn2c1CN(C(=O)Nc1cc(Cl)ccc1F)CC2 [Compound 33, N^5-(5-Chloro-2-fluorophenyl)-2-(3-fluorophenyl)-6,7-dihydropyrazolo[1,5-a]pyrazine-3,5(4H)-dicarboxamide]"
–,0.01 to 10,"CC1(NC(=O)N2CCn3nc(-c4cccc(Cl)c4)c(C(N)=O)c3C2)CCC1 [Compound A44, 2-(3-Chlorophenyl)-N^5-(1-methylcyclobutyl)-6,7-dihydropyrazolo[1,5-a]pyrazine-3,5(4H)-dicarboxamide]"
–,0.01 to 10,"CC(CF)(CF)NC(=O)N1CCn2nc(-c3ccc(Cl)c(Cl)c3)c(C(N)=O)c2C1 [Compound 210, 2-(3,4-Dichlorophenyl)-N^5-(1,3-difluoro-2-methylpropan-2-yl)-6,7-dihydropyrazolo [1,5-a]pyrazine-3,5(4H)-dicarboxamide]"
10 to 100,–,"NC(=O)c1c(-c2ccc(F)cc2)nn2c1CN(C(=O)NC1CCCCC1)CC2 [Compound 3, N^5-Cyclohexyl-2-(4-fluorophenyl)-6,7-dihydropyrazolo[1,5-a]pyrazine-3,5(4H)-dicarboxamide]"
–,0.01 to 10,"CO[C@H]1C[C@@H](NC(=O)N2CCn3nc(-c4ccc(F)c(Cl)c4)c(C(N)=O)c3C2)C1 [Compound 191, 2-(3-Chloro-4-fluorophenyl)-N^5-((1s,3s)-3-methoxycyclobutyl)-6,7-dihydropyrazolo[1,5-a] pyrazine-3,5(4H)-dicarboxamide]"
10 to 100,–,"NC(=O)c1c(-c2cccc(F)c2)nn2c1CN(C(=O)Nc1ccc(OC(F)F)cc1)CC2 [Compound 89, N^5-(4-(Difluoromethoxy)phenyl)-2-(3-fluorophenyl)-6,7-dihydropyrazolo[1,5-a]pyrazine-3,5(4H)-dicarboxamide]"
–,0.01 to 10,"NC(=O)c1c(-c2ccc(Cl)c(Cl)c2)nn2c1CN(C(=O)NC1CC3(CC3)C1)CC2 [Compound 207, 2-(3,4-Dichlorophenyl)-N^5-(spiro[2.3]hexan-5-yl)-6,7-dihydropyrazolo [1,5-a]pyrazine-3,5(4H)-dicarboxamide]"
10 to 100,–,"NC(=O)c1c(-c2cccc(F)c2)nn2c1CN(C(=O)Nc1ccnc(Cl)c1)CC2 [Compound 90, N^5-(2-Chloropyridin-4-yl)-2-(3-fluorophenyl)-6,7-dihydropyrazolo[1,5-a]pyrazine-3,5(4H)-dicarboxamide]"
–,0.01 to 10,"NC(=O)c1c(-c2cccc(Cl)c2)nn2c1CN(C(=O)NC1CC(C(F)F)C1)CC2 (centres unmarked) [Compound 256, 2-(3-Chlorophenyl)-N^5-(3-(difluoromethyl)cyclobutyl)-6,7-dihydropyrazolo[1,5-a]pyrazine-3,5(4H)-dicarboxamide]"
–,0.01 to 10,"NC(=O)c1c(-c2ccc(F)c(Cl)c2)nn2c1CN(C(=O)NC13CCC(CC1)C3)CC2 [Compound A73, N^5-(Bicyclo[2.2.1]heptan-1-yl)-2-(3-chloro-4-fluorophenyl)-6,7-dihydropyrazolo[1,5-a]pyrazine-3,5(4H)-dicarboxamide]"
–,0.01 to 10,"NC(=O)c1c(-c2cccc(Cl)c2)nn2c1CN(C(=O)N[C@@H]1CC[C@H]1COC(F)F)CC2 [Compound 242, 2-(3-Chlorophenyl)-N^5-((1R,2R)-2-((difluoromethoxy)methyl)cyclobutyl)-6,7-dihydropyrazolo[1,5-a] pyrazine-3,5(4H)-dicarboxamide]"
–,0.01 to 10,"N#Cc1ccc([C@H]2C[C@@H](NC(=O)N3CCn4nc(-c5ccc(F)c(Cl)c5)c(C(N)=O)c4C3)C2)cc1 [Compound 282, 2-(3-Chloro-4-fluorophenyl)-N^5-((1s,3s)-3-(4-cyanophenyl)cyclobutyl)-6,7-dihydropyrazolo[1,5-a]pyrazine-3,5(4H)-dicarboxamide]"
